Among the data in ChEMBL document CHEMBL1201862, “PubChem BioAssay data set” (2004) are IC50, EC50 and AC50 values, retold here.

Experiment [1] has as its target T1, Cannabinoid receptor 2 (Homo sapiens, UniProt P34972). The experiment in a line: SAR analysis of antagonists of the Cannabinoid Receptor 2 using an Image-Based Assay - Set 2. [Related pubchem assays (depositor defined):AID1961, AID1965]. It counts as functional.
Experiment [2] addresses G-protein coupled receptor 55 (Homo sapiens, UniProt Q9Y2T6). The experiment in a line: SAR analysis of selective Agonists of GPR55 using an Image-Based Assay - Set 2. [Related pubchem assays (depositor defined):AID1961, AID1965]. It counts as functional.
The target of experiment [3] is T1, Cannabinoid receptor 2. As to the kind of experiment: SAR analysis of agonists of the Cannabinoid Receptor 2 using an Image-Based Assay - Set 2. [Related pubchem assays (depositor defined):AID1961, AID1965]. It counts as functional.
The target of experiment [4] is T2, G-protein coupled receptor 35 (Homo sapiens, UniProt Q9HC97). The experiment in a line: SAR analysis of Agonists of the GPR35 Receptor using an Image-Based Assay - Set 3. [Related pubchem assays (depositor defined):AID1961, AID1965]. It counts as functional.
T2 sequence (Q9HC97 whole entry): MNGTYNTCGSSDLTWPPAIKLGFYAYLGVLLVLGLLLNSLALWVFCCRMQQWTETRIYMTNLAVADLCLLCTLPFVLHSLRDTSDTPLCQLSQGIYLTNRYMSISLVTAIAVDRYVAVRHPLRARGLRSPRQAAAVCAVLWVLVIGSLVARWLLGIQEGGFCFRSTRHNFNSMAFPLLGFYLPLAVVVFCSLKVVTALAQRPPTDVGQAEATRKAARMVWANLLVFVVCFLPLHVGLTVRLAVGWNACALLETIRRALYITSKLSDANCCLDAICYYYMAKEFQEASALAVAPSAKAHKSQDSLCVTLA
For experiment [5], the target named is T3, Cannabinoid receptor 1 (Homo sapiens, UniProt P21554). As to the kind of experiment: SAR analysis of antagonists of the Cannabinoid Receptor 1 using an Image-Based Assay - Set 3. [Related pubchem assays (depositor defined):AID1961, AID1965]. It counts as functional.
T3 sequence (P21554 whole entry): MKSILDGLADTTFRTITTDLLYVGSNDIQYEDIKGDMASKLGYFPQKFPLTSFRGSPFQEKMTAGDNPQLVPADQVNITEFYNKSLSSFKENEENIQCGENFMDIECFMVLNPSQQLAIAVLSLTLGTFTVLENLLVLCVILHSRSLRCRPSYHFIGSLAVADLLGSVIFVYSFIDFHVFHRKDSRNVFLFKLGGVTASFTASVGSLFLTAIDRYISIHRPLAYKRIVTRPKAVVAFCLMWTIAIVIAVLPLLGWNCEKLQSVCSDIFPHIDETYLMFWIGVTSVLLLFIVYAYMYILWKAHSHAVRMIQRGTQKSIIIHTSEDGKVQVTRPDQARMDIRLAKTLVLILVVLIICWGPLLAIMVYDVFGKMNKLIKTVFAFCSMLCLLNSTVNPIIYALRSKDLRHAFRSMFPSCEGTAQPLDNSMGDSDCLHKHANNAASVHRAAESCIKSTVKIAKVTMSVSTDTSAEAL
Experiment [6] has as its target T3, Cannabinoid receptor 1. The experiment in a line: SAR analysis of agonists of the Cannabinoid Receptor 1 using an Image-Based Assay - Set 3. [Related pubchem assays (depositor defined):AID1961, AID1965]. It counts as functional.
The target in experiment [7] is T2, G-protein coupled receptor 35. As to the kind of experiment: SAR analysis of Antagonists of the GPR35 Receptor using an Image-Based Assay - Set 4. [Related pubchem assays (depositor defined):[…]]. It counts as functional.
The target in experiment [8] is Potassium voltage-gated channel subfamily KQT member 2 (Rattus norvegicus, UniProt O88943). The experiment in a line: potentiation of rat KCNQ2 current – cell-based, retigabine-insensitive compounds, dose response (AID 2654). It counts as functional.
The target in experiment [9] is E3 ubiquitin-protein ligase Mdm2 (Homo sapiens, UniProt Q00987). The experiment in a line: MDM2-luc reporter signal enhancers, multi-concentration potency testing, MDM2 ubiquitin-protein ligase inhibitor program, whole-cell format, luminescence detection, 384-well microplate (AID 1394).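 Note: MDM2 E3 inhibitors raise luminescence so EC50 is for signal enhancement.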 It counts as functional.
Chain of E3 ubiquitin-protein ligase Mdm2 (Q00987 whole entry): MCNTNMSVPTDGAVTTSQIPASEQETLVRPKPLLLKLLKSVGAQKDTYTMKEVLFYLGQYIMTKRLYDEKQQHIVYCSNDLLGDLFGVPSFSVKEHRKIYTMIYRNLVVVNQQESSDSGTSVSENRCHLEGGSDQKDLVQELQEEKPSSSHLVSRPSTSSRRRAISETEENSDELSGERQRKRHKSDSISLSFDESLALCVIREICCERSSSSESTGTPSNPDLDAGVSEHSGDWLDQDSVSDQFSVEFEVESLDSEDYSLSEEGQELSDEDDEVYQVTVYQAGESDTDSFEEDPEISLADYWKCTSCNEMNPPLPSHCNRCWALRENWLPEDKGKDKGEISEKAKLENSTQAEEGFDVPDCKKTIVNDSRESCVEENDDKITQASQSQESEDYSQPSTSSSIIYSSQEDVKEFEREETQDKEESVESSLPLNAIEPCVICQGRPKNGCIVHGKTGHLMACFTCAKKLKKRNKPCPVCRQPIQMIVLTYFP
Experiment [10] has as its target T4, Voltage-gated N-type calcium channel alpha-1B subunit/Amyloid beta A4 precursor protein-binding family A member 1 (Homo sapiens, UniProt Q00975+Q02410). It counts as protein assay.
The target of experiment [11] is T4, Voltage-gated N-type calcium channel alpha-1B subunit/Amyloid beta A4 precursor protein-binding family A member 1. It counts as protein assay. This is another data set of the same source.
Experiment [12] has as its target T5, Microphthalmia-associated transcription factor (Homo sapiens, UniProt O75030).
T5 sequence (O75030 whole entry): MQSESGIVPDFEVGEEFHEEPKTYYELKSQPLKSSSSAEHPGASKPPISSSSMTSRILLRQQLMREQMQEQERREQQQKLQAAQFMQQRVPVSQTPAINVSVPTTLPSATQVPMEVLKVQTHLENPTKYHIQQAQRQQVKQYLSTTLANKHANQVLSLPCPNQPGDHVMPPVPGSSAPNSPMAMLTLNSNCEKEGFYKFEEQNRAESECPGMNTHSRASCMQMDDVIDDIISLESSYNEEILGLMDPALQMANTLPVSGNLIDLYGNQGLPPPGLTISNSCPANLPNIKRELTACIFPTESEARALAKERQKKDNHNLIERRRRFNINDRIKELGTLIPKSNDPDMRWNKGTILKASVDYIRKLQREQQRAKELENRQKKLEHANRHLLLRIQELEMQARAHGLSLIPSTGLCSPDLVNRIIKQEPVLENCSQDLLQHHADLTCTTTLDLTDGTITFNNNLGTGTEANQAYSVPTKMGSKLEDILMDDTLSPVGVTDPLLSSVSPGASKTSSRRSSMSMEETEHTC
As to the kind of experiment: reducers of TRPM1 reporter luminescence, concentration series – cell-based, SK-MEL-5, cherry-picked, set 3, MITF inhibitor project, dose response (AID 493073).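 Note: SK-MEL-5 melanoma cells with luciferase driven by the MITF target TRPM1 promoter.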 It counts as functional.

In experiment [13] the target is Hepatocyte nuclear factor 4-alpha (Homo sapiens, UniProt P41235). It counts as functional, cell-based.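 Note: biochemical luminescence-based dose-response counterscreen measuring inhibition of HNF4 dimerization, run alongside a screen for blockers of ABHD5–perilipin-5 interaction; split luciferase complementation of HNF4 fusion proteins in cell lysate measuring dimerization.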
Chain of Hepatocyte nuclear factor 4-alpha (P41235 whole entry, the tested form may be a part): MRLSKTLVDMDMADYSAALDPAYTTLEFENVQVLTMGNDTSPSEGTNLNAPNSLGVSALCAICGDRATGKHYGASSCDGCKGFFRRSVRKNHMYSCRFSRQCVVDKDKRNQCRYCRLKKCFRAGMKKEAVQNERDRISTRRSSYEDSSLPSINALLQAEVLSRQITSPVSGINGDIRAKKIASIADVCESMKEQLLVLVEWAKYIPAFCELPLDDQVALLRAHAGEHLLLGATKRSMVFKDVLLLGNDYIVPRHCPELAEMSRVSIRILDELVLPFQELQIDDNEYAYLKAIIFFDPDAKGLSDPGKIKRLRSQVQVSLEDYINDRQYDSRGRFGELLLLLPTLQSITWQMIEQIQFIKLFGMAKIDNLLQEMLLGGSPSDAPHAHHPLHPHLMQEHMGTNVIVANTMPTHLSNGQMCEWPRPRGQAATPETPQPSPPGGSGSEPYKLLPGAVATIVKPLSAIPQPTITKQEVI
Experiment [14] has as its target T6, Kappa-type opioid receptor (Homo sapiens, UniProt P41145). The experiment in a line: kappa opioid receptor activation by imaging – image-based, set 3, SAR follow-up (AID 488833). It counts as functional.
For experiment [15], the target named is T7, Mu-type opioid receptor (Homo sapiens, UniProt P35372). The experiment in a line: SAR Analysis of Agonists of the MOR Receptor using an Image-Based Assay - Set 3. [Related pubchem assays (depositor defined):AID1777, AID1785, AID1786, AID1966, AID2133, AID2136, AID2284, AID2285, AID2352]. It counts as functional.
T7 sequence (P35372 whole entry): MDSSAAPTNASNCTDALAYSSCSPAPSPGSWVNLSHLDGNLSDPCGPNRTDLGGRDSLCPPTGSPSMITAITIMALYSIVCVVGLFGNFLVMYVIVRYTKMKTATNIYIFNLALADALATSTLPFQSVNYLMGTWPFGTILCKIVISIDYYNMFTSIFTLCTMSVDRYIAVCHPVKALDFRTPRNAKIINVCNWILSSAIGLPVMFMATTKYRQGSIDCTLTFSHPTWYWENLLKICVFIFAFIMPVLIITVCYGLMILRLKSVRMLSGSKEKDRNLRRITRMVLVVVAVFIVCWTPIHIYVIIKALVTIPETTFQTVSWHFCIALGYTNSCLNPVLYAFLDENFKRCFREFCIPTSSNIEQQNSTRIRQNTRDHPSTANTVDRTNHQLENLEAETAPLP
Experiment [16] deals with T8, Delta-type opioid receptor (Homo sapiens, UniProt P41143). As to the kind of experiment: SAR Analysis of Agonists of the DOR Receptor using an Image-Based Assay - Set 3. [Related pubchem assays (depositor defined):AID1777, AID1786]. It counts as functional.
T8 sequence (P41143 whole entry): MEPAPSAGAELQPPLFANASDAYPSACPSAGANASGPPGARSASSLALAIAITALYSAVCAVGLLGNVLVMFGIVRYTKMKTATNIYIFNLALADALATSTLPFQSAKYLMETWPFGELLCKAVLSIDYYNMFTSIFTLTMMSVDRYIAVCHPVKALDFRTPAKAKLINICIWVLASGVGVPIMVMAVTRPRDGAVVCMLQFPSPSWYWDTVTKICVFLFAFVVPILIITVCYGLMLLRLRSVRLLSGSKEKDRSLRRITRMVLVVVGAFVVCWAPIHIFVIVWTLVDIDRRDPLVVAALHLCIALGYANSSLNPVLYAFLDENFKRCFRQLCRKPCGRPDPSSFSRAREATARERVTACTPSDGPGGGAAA
The target of experiment [17] is T6, Kappa-type opioid receptor. As to the kind of experiment: SAR analysis of small molecule agonists of the kappa opioid receptor via a luminescent beta-arrestin assay - Set 3. [Related pubchem assays (depositor defined):AID1777, AID1785, AID1786, AID1966, AID2133, AID2136, AID2284, AID2500]. It counts as functional.
Experiment [18] concerns the target T7, Mu-type opioid receptor. As to the kind of experiment: SAR Analysis of Antagonists of the MOR Receptor using an Image-Based Assay - Set 3. [Related pubchem assays (depositor defined):AID1777, AID1785, AID1786, AID1966, AID2133, AID2136, AID2284, AID2285, AID2420]. It counts as functional.
The target of experiment [19] is T8, Delta-type opioid receptor. As to the kind of experiment: SAR Analysis of Antagonists of the DOR Receptor using an Image-Based Assay - Set 3. [Related pubchem assays (depositor defined):AID1777, AID1785]. It counts as functional.
Experiment [20] has as its target T6, Kappa-type opioid receptor. The experiment in a line: SAR analysis of small molecule antagonists of the kappa opioid receptor via a luminescent beta-arrestin assay - Set 3. [Related pubchem assays (depositor defined):AID1777, AID1778, AID1785, AID1786, AID1966, AID2133, AID2136, AID2285, AID2495]. It counts as functional.
The target in experiment [21] is T6, Kappa-type opioid receptor. The experiment in a line: SAR analysis of Antagonists of the Kappa Opioid Receptor (KOR) using an Image-Based Assay - Set 3. [Related pubchem assays (depositor defined):AID1777, AID1785]. It counts as functional.
The target in another experiment is Coagulation factor XII (Homo sapiens, UniProt P00748). It counts as functional.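 Note: activated factor XIIa alpha cleaving a fluorogenic AMC peptide substrate; inhibitor potency from loss of enzyme activity.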
Chain of Coagulation factor XII (P00748 20-372 limits assumed): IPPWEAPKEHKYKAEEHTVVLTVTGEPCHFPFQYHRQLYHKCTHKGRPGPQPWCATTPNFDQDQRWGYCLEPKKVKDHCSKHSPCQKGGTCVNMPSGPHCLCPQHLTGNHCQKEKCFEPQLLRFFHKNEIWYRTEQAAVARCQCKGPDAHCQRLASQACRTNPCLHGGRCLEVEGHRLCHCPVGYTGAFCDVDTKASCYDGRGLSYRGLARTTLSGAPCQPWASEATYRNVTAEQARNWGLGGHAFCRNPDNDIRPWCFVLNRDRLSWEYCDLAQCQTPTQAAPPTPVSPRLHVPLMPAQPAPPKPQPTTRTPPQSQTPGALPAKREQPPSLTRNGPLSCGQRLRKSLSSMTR
Chain of Coagulation factor XII (P00748 373-615 limits assumed): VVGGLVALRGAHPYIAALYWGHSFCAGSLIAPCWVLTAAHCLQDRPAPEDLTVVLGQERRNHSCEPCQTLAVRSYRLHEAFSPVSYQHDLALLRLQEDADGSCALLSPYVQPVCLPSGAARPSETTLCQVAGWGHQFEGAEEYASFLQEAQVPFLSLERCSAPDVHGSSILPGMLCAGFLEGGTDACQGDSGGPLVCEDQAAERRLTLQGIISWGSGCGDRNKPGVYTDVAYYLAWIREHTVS

The source made the active and inactive calls.

T6 sequence (P41145 whole entry): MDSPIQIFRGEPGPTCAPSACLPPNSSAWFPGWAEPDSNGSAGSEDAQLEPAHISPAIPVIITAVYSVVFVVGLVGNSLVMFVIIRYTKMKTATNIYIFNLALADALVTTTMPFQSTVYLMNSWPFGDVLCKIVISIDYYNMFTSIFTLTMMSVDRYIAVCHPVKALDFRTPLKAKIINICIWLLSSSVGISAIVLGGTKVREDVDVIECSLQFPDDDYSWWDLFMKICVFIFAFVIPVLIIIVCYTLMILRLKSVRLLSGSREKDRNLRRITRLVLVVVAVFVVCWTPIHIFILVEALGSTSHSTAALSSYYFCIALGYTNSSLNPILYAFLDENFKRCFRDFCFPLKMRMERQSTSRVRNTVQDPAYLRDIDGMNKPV
T1 sequence (P34972 whole entry): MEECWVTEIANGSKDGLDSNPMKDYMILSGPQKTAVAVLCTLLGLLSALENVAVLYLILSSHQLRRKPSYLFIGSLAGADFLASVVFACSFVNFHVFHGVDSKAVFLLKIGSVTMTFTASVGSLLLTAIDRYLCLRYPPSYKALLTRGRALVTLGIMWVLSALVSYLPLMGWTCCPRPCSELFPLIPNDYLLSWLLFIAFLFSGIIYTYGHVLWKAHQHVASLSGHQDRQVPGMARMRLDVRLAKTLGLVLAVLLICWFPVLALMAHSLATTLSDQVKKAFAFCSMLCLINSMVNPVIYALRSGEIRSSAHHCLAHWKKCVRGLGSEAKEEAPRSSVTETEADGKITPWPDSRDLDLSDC
Chain of G-protein coupled receptor 55 (Q9Y2T6 whole entry): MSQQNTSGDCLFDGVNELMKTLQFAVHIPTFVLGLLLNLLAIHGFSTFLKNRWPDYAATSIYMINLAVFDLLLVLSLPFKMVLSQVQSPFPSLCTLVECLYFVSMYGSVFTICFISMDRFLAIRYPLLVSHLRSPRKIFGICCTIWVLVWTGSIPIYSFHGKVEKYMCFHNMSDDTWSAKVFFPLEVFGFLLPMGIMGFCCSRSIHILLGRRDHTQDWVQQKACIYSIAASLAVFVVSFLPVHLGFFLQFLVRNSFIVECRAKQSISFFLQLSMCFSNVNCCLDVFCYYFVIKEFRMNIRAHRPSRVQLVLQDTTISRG

By IC50 is commonly meant the concentration needed to halve the response being measured. One may read the EC50 as the midpoint of the concentration-response curve. As for `COc1ccc(S(=O)(=O)N2CCOCC2)cc1NC(=O)c1ccc(-n2nc(C)cc2C)cc1`, the results for the IC50 (at Cannabinoid receptor 2 [1]; at Cannabinoid receptor 1 [5]; in experiment [7]) were > 32 µM (inactive), 20.3 µM (inactive) and > 32 µM (inactive), respectively. The 50% effective concentration (EC50) is 831 nM (active) in experiment [2], > 32 µM (inactive) on Cannabinoid receptor 2 [3], > 32 µM (inactive) in experiment [4] and > 32 µM (inactive) at Cannabinoid receptor 1 [6].

In the case of `O=C(Nc1ccc(Cl)nc1)Nc1cccc(F)c1`, in experiment [8], the concentration for a half-maximal effect (EC50) was 2.81 µM (active).

Broadly, the AC50 is the midpoint of the concentration-response curve, whichever way the signal moves. As to `COCCNC(=O)/C(C#N)=C/c1cccc(/C=C(\C#N)C(=O)NCCOC)c1`, the EC50 in experiment [9] was 940 nM (active). Further, the half-maximal inhibitory concentration (IC50) in [10] was > 56.8 µM (not active); in [11] it was > 50 µM (inactive); in experiment [13], 1.51 µM (active). For the same molecule, the AC50 in [12] is 12.7 µM (active).

`Clc1ccccc1CSc1nnc(-c2ccccn2)n1Cc1cccs1`: the EC50 in [14] was 4.06 µM (active); at Mu-type opioid receptor [15], > 32 µM (inactive); in experiment [16] it was > 32 µM (inactive); in [17], 10.1 µM (inactive).

Turning to `CC(C)N(CCNC(=O)c1ccc(CNS(=O)(=O)c2ccc(Br)cc2)cc1)Cc1ccccc1`, the IC50 was 3.22 µM (active) on Mu-type opioid receptor [18], > 32 µM (inactive) in experiment [19], 1.32 µM (active) in experiment [20] and 421 nM (active) in [21].

On to `CC(C(=O)Oc1ccc2c(c1)OCO2)N1C(=O)c2ccccc2C1=O` (configuration not stated), for which, at Coagulation factor XII, the IC50 is > 50 µM (inactive).
